The values that follow come from US20230250145A1, “COMPOSITIONS AND METHODS FOR THE TREATMENT OF CANCER” (MOMA Therapeutics, Inc., priority 2020, published 2023).

For data set [1], the system named is FANCM mRNA transcript in UWB1.289. In words: qPCR of FANCM mRNA expression after doxycycline induced shRNA. Type of data set: cell-based. The conditions noted are these: three days of doxycycline treatment. An excerpt:
All shRNAs were cloned into pLKO-tet-on vector, packaged into lentivirus and titered for each cell line for an MOI <0.7.
(Quantitative PCR measures a nucleic acid by following its amplification.)

The next data set relates to FANCM protein. Briefly: Western blot of FANCM protein levels. Type of data set: cell-based. The settings on record: cells treated with CRISPR RNP sgRNA (FIG. 4B). The method, then: Cells were plated for all conditions at a necessary density for analysis (1×10^7 cells per/reaction for nuclear isolation). Following treatment, cells were washed with PBS and trypsinized with TrypLE until loss of adherence. Cells were collected in a 15 mL falcon tube and spun down into a pellet at 1,000 RPM×5 minutes. The supernatant is aspirated and pellets were then placed into downstream protocol (NE-PER cell fractionation kit protocol as provided by vendor). Samples were run on 3-8% Bis-tris gels (Thermo fisher Cat #EA0375PK2) for 45 minutes @ 200 v. […] Membranes were stained overnight at 4 degrees with appropriate antibodies.
FANCM: Anti-FANCM Antibody, clone CV5.1 (MABC545) 1:1000 dilution
Lamin B: Recombinant Anti-Lamin B1 antibody [EPR8985(B)] (ab133741) 1:2000 dilution

As for “shRNA #1858: doxycycline-inducible shRNA targeting FANCM, SEQ ID NO: 78, AGGACGAGAGGAACGTATTTA”, the “FANCM mRNA transcripts (qPCR)” value in data set [1] is “loss of FANCM mRNA transcripts”.
In the case of “FANCM sgRNA #4: sgRNA targeting the FANCM locus, SEQ ID NO: 70, AAAGACCTTTATTGCCGCCG (synthetic chemically modified sgRNA (Synthego EZ kit), pattern not given here)”, the “FANCM protein expression (Western blot)” value with FANCM protein is “loss of FANCM protein expression”.
Consider “FANCM sgRNA #3: sgRNA targeting the FANCM locus, SEQ ID NO: 69, CATGACCACGGCGGCAATAA (synthetic chemically modified sgRNA (Synthego EZ kit), pattern not given here)”, for which the “FANCM protein expression (Western blot)” value in the data set on FANCM protein was “loss of FANCM protein expression”.
Turning to “shRNA #1307: doxycycline-inducible shRNA targeting FANCM, SEQ ID NO: 77, GACTTCATGAAACTCTATAAT”, the “FANCM mRNA transcripts (qPCR)” value in data set [1] is listed as “loss of FANCM mRNA transcripts”.
